The values below come from patent US10233186B2, “Inhibitors of activin receptor-like kinase” (BLUEPRINT MEDICINES CORPORATION, priority 2016, dated 2019).

Structures are written as SMILES.

The assay has as its target T1, ALK2 R206H (GST-tagged mutant ALK2) (Homo sapiens, UniProt Q04771, R206H).
T1 construct: purchased Carna Bioscience or ThermoFisher 09-148 or PV6232
T1 sequence (Q04771 21-509 R206H): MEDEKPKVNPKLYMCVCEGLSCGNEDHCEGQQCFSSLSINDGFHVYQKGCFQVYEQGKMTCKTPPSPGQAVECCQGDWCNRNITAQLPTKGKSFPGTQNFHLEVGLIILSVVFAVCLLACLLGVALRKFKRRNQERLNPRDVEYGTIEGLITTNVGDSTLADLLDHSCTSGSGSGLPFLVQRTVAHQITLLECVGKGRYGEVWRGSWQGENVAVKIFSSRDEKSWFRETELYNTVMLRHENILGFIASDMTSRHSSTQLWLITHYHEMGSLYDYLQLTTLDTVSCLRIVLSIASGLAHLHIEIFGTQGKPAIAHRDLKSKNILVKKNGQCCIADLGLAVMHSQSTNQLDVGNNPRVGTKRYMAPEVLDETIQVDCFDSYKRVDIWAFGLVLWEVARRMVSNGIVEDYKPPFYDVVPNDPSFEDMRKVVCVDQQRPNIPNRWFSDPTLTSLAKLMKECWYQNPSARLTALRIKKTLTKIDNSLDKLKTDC
The experiment in a line: ALK binding assay (LANTHASCREEN TR-FRET competitive binding, displacement of Kinase Tracer 178). Particulars: ALK2 R206H, LANTHASCREEN TR-FRET competitive binding; read-out: Binding Assay (IC50). On the procedure: Binding assays were conducted using the LANTHASCREEN® technology (ThermoFisher Scientific). LANTHASCREEN® is a competitive binding, displacement assay where the assumed steady state occupancy of the binding site is measured using a time-resolved, fluorescence energy transfer (TR-FRET) readout between a fluorescent tracer and Europium (Eu)-tagged antibody specific for the kinase or expression tag (e.g. GST) of interest. Displacement of the tracer by a compound of the disclosure reduces, and is directly proportional to, the TR-FRET between the tracer and the antibody. Tracer was used at a concentration equal to or near to its Kd for the kinase.
In all cases, the kinase (2-5 nM) was mixed with Eu-tagged antibody (10 nM) mix and tracer (50 nM) were incubated with test compound titrations prepared in 100% DMSO (1% DMSO final) for 30 minutes at room temperature. All reagents and compounds were dissolved in Kinase Buffer A (ThermoFisher) to achieve the final concentration. […] This readout was normalized to 0% and 100% inhibited control wells, plotted against inhibitor concentration, and fitted to a 4-parameter log dose response curve.
Blank values in the table indicate that the particular compound was not tested in this assay.
On the technique in general: Time-resolved FRET reads energy transfer from a long-lived donor to a nearby acceptor.
By IC50 is commonly meant the concentration needed to halve the response being measured. For the compound `C[C@H]1CNC[C@@H](c2ccc(-c3cc4c(N5CCN(C(=O)C6CC6)CC5)ccnn4c3)cc2)O1` [Compound 165], the IC50 lay in the range of 10 to 50 nM.
On to `CCN1CCC(c2ccc(-c3cc4c(N5CCN(C(=O)C6CC6c6ccc(Cl)cc6)CC5)ccnn4c3)cc2)C1` (stereo not drawn) [Compound 444], for which the half-maximal inhibitory concentration (IC50) lay within 10 to 50 nM.
The value for `N[C@H]1CCN(c2ccc(-c3cc4c(N5CCN(C(=O)C6CC6)CC5)ccnn4c3)cc2)C1` [Compound 461] was under 10 nM; that for `O=C(C1CC1)N1CCN(c2ccnn3cc(-c4ccc(N5CCNCC5=O)cc4)cc23)CC1` [Compound 151] was over 50 nM.
Consider `CCNC(=O)N1CCN(c2ccnn3cc(-c4ncc(N5CCN(C(C)C)CC5)cn4)cc23)CC1` [Compound 553], for which the half-maximal inhibitory concentration (IC50) fell in the range of 10 to 50 nM.
`CCN1CCN(c2ccc(-c3cc4c(N5CCN6C(=O)CCC6C5)ccnn4c3)cc2)CC1` (stereo not drawn) [Compound 157, 2-(6-(4-(4-ethylpiperazin-1-yl)phenyl)pyrrolo[1,2-b]pyridazin-4-yl)hexahydropyrrolo[1,2-a]pyrazin-6(7H)-one]: the half-inhibitory concentration (IC50) is over 50 nM.
Regarding `CO[C@@]1(c2ccc(-c3cc4c(N5CCN(C(=O)NC(C)C)CC5)ccnn4c3)cc2F)CCCNC1` [Compound 807], the IC50 is under 10 nM.
The value for `O=C(C1CC1)N1CCN(c2ccnn3cc(-c4nc5c(s4)CCNC5)cc23)CC1` [Compound 108] was 10 to 50 nM.
Regarding `O=C(C1CC1)N1CCN(c2ccnn3cc(-c4ccc(OCCN5CCNCC5)cc4)cc23)CC1` [Compound 273, cyclopropyl(4-(6-(4-(2-(piperazin-1-yl)ethoxy)phenyl)pyrrolo[1,2-b]pyridazin-4-yl)piperazin-1-yl)methanone], the IC50 fell in the range of 10 to 50 nM.
For `CC(C)N1CCC(c2ccc(-c3cc4c(N5CCN(C(=O)N6CCC67COC7)CC5)ccnn4c3)cc2)CC1` [Compound 842] the value was 10 to 50 nM; for `CCN1CCN(c2ccc(-c3cc4c(N5CCN(C(=O)C6(c7nccs7)CC6)CC5)ccnn4c3)cc2)CC1` [Compound 440], over 50 nM.
For `CC(C)N1CCN[C@@](C)(c2ccc(-c3cc4c(N5CCN(C(=O)C6CC6)CC5)ccnn4c3)cc2)C1` [Compound 569] the value was under 10 nM; for `CCN1CCN(c2ccc(-c3cc4c(N5CCN(C(=O)C6(c7cccs7)CC6)CC5)ccnn4c3)cc2)CC1` [Compound 438], 10 to 50 nM; for `CC(C)N1CC(Oc2ccc(-c3cc4c(N5CCN(C(=O)C6CC6)CC5)ccnn4c3)cc2)C1` [Compound 220], under 10 nM.
On to `NC(CO)c1ccc(-c2cc3c(N4CCN(C(=O)C5CC5)CC4)ccnn3c2)c(F)c1` (stereo not drawn) [Compound 759], for which the IC50 was under 10 nM.
For `CCOC1(c2ccc(-c3cc4c(N5CCN(C(=O)NC(C)C)CC5)ccnn4c3)nc2)CCN(C[C@@H](C)F)CC1` [Compound 862] the value was under 10 nM; for `O=C(C1CC1)N1CCN(c2ccnn3cc(-c4ccc([C@H]5CCNC[C@H]5F)cc4)cc23)CC1` [Compound 175], 10 to 50 nM; for `O=C(C1CC1)N1CCN(c2ccnn3cc(-c4ccc(NC5=NCCN5)cc4)cc23)CC1` [Compound 121, cyclopropyl(4-(6-(4-(4,5-dihydro-1H-imidazol-2-ylamino)phenyl)pyrrolo[1,2-b]pyridazin-4-yl)piperazin-1-yl)methanone], under 10 nM.
The value for `CO[C@]1(c2ccc(-c3cc4c(N5CCN(C(=O)NC(C)C)CC5)ccnn4c3)cc2F)CCCNC1` [Compound 806] was under 10 nM; that for `O=C(C1CC1)N1CCN(c2ccnn3cc(-c4ccc(C5CC6(CNC6)C5)cc4)cc23)CC1` [Compound 767] was under 10 nM.
For `COCNC(=O)N1CCN(c2ccnn3cc(-c4ccc(C5CCN(C(C)C)CC5)cc4)cc23)CC1` [Compound 590] the value was under 10 nM; for `CCNC(=O)N1CC2CC(C1)N2c1ccnn2cc(-c3ccc(C4CCN(C(C)C)CC4)cc3)cc12` [Compound 319], over 50 nM; for `CCNC(=O)N1CCN(c2ccnn3cc(-c4ccc([C@@]5(OC)CCCN(C(C)C)C5)cc4)cc23)CC1` [Compound 640], under 10 nM.
Regarding `CC(C)N1CCC(c2ccc(-c3cc4c(N5CCN(C(=O)C6COC6)CC5)ccnn4c3)cc2)CC1` [Compound 574], the IC50 is under 10 nM.
`CC(C)NC(=O)N1CCN(c2ccnn3cc(-c4ccc([C@]5(O)CCN(C(C)C)C5)cn4)cc23)CC1` [Compound 607]: the IC50 was under 10 nM.
For `NC(CO)Cc1ccc(-c2cc3c(N4CCN(C(=O)C5CC5)CC4)ccnn3c2)cc1` (stereo not drawn) [Compound 757] the value was under 10 nM; for `CCN1CCN(c2ccc(-c3cc4c(N5CCN(C(=O)C6(c7ccsc7)CC6)CC5)ccnn4c3)cc2)CC1` [Compound 439], 10 to 50 nM; for `CCNC(=O)N1CCN(c2ccnn3cc(-c4ccc([C@]5(OC)CCCN(C(C)C)C5)cc4)cc23)CC1` [Compound 639], under 10 nM.
Regarding `CC(C)N1CCC(c2ccc(-c3cc4c(N5CCN(C(=O)C6(C7CC7)CC6)CC5)ccnn4c3)cc2)CC1` [Compound 414], the IC50 lay in the range of 10 to 50 nM.
The value for `O=C(C1CC1)N1CCN(c2ccnn3cc(-c4ccc(CNCCO)cc4)cc23)CC1` [Compound 756] was under 10 nM.
For `CCN1CCN(c2ccc(-c3cc4c(N5CCN(C(=O)N6CC(OC)C6)CC5)ccnn4c3)cc2)CC1` [Compound 397] the value was 10 to 50 nM; for `CCN1C[C@H]2CN(c3ccnn4cc(-c5ccc(N6CCN(C(C)C)CC6)cc5)cc34)CCN2C1=O` [Compound 331], 10 to 50 nM.
Take `CC(C)N1CCN(c2cnc(-c3cc4c(N5CCN(C(=O)C6CC6)CC5)ccnn4c3)nc2)CC1` [Compound 528]: the concentration for half-maximal inhibition (IC50) lay in the range of 10 to 50 nM.
In the case of `CCN1CCC(c2ccc(-c3cc4c(N5CCN(C(=O)C6(C(C)=O)CC6)CC5)ccnn4c3)cc2)C1` (stereo not drawn) [Compound 311], the IC50 was over 50 nM.
The value for `CCOC(=O)N1CCN(c2ccnn3cc(-c4ccc(C5=CCN(C(C)C)CC5)cc4F)cc23)CC1` [Compound 602] was under 10 nM.
Consider `C[C@@H]1CNC[C@@H](c2ccc(-c3cc4c(N5CCN(C(=O)C6CC6)CC5)ccnn4c3)cc2)O1` [Compound 168], for which the IC50 lay within 10 to 50 nM.
Take `CCN1CCC(n2ccc(-c3cc4c(N5CCN(C(=O)C6CC6)CC5)ccnn4c3)n2)C1` (stereo not drawn) [Compound 138]: the IC50 was 10 to 50 nM.
For `CC(C)N1C[C@H](c2ccc(-c3cc4c(N5CCN(C(=O)C6CC6)CC5)ccnn4c3)cc2)C[C@H]1C` [Compound 506] the value was 10 to 50 nM.
The value for `CCN1CCN(c2ccc(-c3cc4c(N5CCN(C(C)=O)CC5)ccnn4c3)cc2)CC1` [Compound 136] was 10 to 50 nM; that for `CCN(CC)C(=O)N1CCN(c2ccnn3cc(-c4ccc(C5CCN(C(C)C)CC5)cc4)cc23)CC1` [Compound 392] was 10 to 50 nM; that for `CC(C)N1CC=C(c2ccc(-c3cc4c(N5CCN(C(=O)C6CC6)CC5)ccnn4c3)c(F)c2)CC1` [Compound 571] was under 10 nM.
For `CCO[C@]1(c2ccc(-c3cc4c(N5CCN(C(=O)NC(C)C)CC5)ccnn4c3)nc2)CCCN(C(C)C)C1` [Compound 717] the value was under 10 nM; for `CCN1CCC(c2ccc(-c3cc4c(N5CCN(C(=O)C6(C(F)F)CC6)CC5)ccnn4c3)cc2)C1` (stereo not drawn) [Compound 356], 10 to 50 nM; for `O=C(C1CC1)N1CCN(c2ccnn3cc(-c4ccc(N5CCC6(CNC6)C5)cc4)cc23)CC1` [Compound 198], under 10 nM.
In the case of `CC(C)N1CCC(c2ccc(-c3cc4c(N5CCN(C(=O)NCC(F)F)CC5)ccnn4c3)cc2)CC1` [Compound 822], the half-inhibitory concentration (IC50) was 10 to 50 nM.
